#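 In this assay, cells in 96-well plates receive the compound at five concentrations for 48 hours. Endpoints are linearly interpolated between the surrounding concentrations. GI50 marks 50% less growth. At the TGI there is no net growth.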
# System: CCRF-CEM leukemia
# Assay: NCI tumour cell line growth inhibition, 48 h
Structure (SMILES),TGI [µM],GI50 [µM]
C/C(=C\CO)CC/C=C(\C)CNc1c(F)c(F)c(F)c(F)c1F,> 100,
COC(=O)Nc1nc2ccc(S(=O)c3ccccc3)cc2[nH]1 (stereo not drawn),> 100,5.16

# System: UACC-62 melanoma
# Assay: NCI tumour cell line growth inhibition, 48 h
Structure (SMILES),GI50 [µM],TGI [µM]
CC1=C(C#N)C23C(=O)c4ccccc4C(O)=C2C(=O)C=CC3(O)N1Cc1ccccc1 (stereo not drawn),47.4,> 100
C/C(=C\CO)CC/C=C(\C)CNc1c(F)c(F)c(F)c(F)c1F,,37.9
COC(=O)Nc1nc2ccc(S(=O)c3ccccc3)cc2[nH]1 (stereo not drawn),4.44,> 100

# System: LOX IMVI melanoma
# Assay: NCI tumour cell line growth inhibition, 48 h
Structure (SMILES),GI50 [µM],TGI [µM]
Cc1cc2nc(C(Cl)Cl)nc(-c3ccc(Cl)cc3)n2n1,3.95,> 100
CC1=C(C#N)C23C(=O)c4ccccc4C(O)=C2C(=O)C=CC3(O)N1Cc1ccccc1 (stereo not drawn),33,> 100
C/C(=C\CO)CC/C=C(\C)CNc1c(F)c(F)c(F)c(F)c1F,,80.8
COC(=O)Nc1nc2ccc(S(=O)c3ccccc3)cc2[nH]1 (stereo not drawn),5.96,> 100

# System: NCI-H226 lung
# Assay: NCI tumour cell line growth inhibition, 48 h
Structure (SMILES),GI50 [µM],TGI [µM]
Cc1cc2nc(C(Cl)Cl)nc(-c3ccc(Cl)cc3)n2n1,3.28,> 100
C/C(=C\CO)CC/C=C(\C)CNc1c(F)c(F)c(F)c(F)c1F,,75.1
COC(=O)Nc1nc2ccc(S(=O)c3ccccc3)cc2[nH]1 (stereo not drawn),4.06,> 100

# System: PC-3 prostate
# Assay: NCI tumour cell line growth inhibition, 48 h
Structure (SMILES),GI50 [µM],TGI [µM]
Cc1cc2nc(C(Cl)Cl)nc(-c3ccc(Cl)cc3)n2n1,1.33,4.16
CC1=C(C#N)C23C(=O)c4ccccc4C(O)=C2C(=O)C=CC3(O)N1Cc1ccccc1 (stereo not drawn),47,> 100
C/C(=C\CO)CC/C=C(\C)CNc1c(F)c(F)c(F)c(F)c1F,,58.5
COC(=O)Nc1nc2ccc(S(=O)c3ccccc3)cc2[nH]1 (stereo not drawn),6.75,> 100

# System: DU-145 prostate
# Assay: NCI tumour cell line growth inhibition, 48 h
Structure (SMILES),GI50 [µM],TGI [µM]
Cc1cc2nc(C(Cl)Cl)nc(-c3ccc(Cl)cc3)n2n1,0.268,0.827
CC1=C(C#N)C23C(=O)c4ccccc4C(O)=C2C(=O)C=CC3(O)N1Cc1ccccc1 (stereo not drawn),35.1,> 100
C/C(=C\CO)CC/C=C(\C)CNc1c(F)c(F)c(F)c(F)c1F,,> 100
COC(=O)Nc1nc2ccc(S(=O)c3ccccc3)cc2[nH]1 (stereo not drawn),31,> 100

# System: K-562 leukemia
# Assay: NCI tumour cell line growth inhibition, 48 h
Structure (SMILES),GI50 [µM],TGI [µM]
Cc1cc2nc(C(Cl)Cl)nc(-c3ccc(Cl)cc3)n2n1,1.39,> 28.5
CC1=C(C#N)C23C(=O)c4ccccc4C(O)=C2C(=O)C=CC3(O)N1Cc1ccccc1 (stereo not drawn),32.9,> 100
C/C(=C\CO)CC/C=C(\C)CNc1c(F)c(F)c(F)c(F)c1F,,92

# System: SK-MEL-2 melanoma
# Assay: NCI tumour cell line growth inhibition, 48 h
Structure (SMILES),GI50 [µM],TGI [µM]
CC1=C(C#N)C23C(=O)c4ccccc4C(O)=C2C(=O)C=CC3(O)N1Cc1ccccc1 (stereo not drawn),33,> 100
C/C(=C\CO)CC/C=C(\C)CNc1c(F)c(F)c(F)c(F)c1F,,48.6
COC(=O)Nc1nc2ccc(S(=O)c3ccccc3)cc2[nH]1 (stereo not drawn),3.29,> 100

# System: M14 melanoma
# Assay: NCI tumour cell line growth inhibition, 48 h
Structure (SMILES),GI50 [µM],TGI [µM]
Cc1cc2nc(C(Cl)Cl)nc(-c3ccc(Cl)cc3)n2n1,1.31,3.25
CC1=C(C#N)C23C(=O)c4ccccc4C(O)=C2C(=O)C=CC3(O)N1Cc1ccccc1 (stereo not drawn),32.8,> 100

# Source: PubChem BioAssay (NCI)
